Patent publication US10487337B2, “Methods for monocot plant improvement” (Agresearch Limited, priority 2014, dated 2019)

Columns and labels:
[1] = system: Wild-type (Col-0), Δppd mutant and transgenic PPD-OX seedlings; test: Hypocotyl elongation of seedlings on exogenous GA or PAC; assay type: in vivo, Arabidopsis thaliana
Description: Giberellic acid (GA) treatment is known to reduce levels of the DELLA proteins (including RGA1) which are GA repressors; to determine the relationship between PPD, DELLA and the GA signalling pathway the applicants performed a yeast two-hybrid (Y2H) analysis between PPD and DELLA (RGA1) and applied gibberellic acid (GA) hormone and GA biosynthesis inhibitor (paclobutrazol, PAC) to wild type, Δppd mutant, and the Δppd mutant PPD over expressor (PPD-OX).
For exogenous applications of GA or PAC seeds were surface sterilised with 70% ethanol, 0.01% Triton X-100 for 10 min, followed by 100% ethanol for 5 min, air dried on sterile filter paper, and transferred to media plates containing half-strength MS salts, 1% sucrose and 0.8% agar. Plates were incubated for 5 days at 4° C. in the dark then transferred to 24° C. with a 14 h light/10 h dark daily cycle. Light was provided by fluorescent tubes (Philips TLD 58W/865) at an intensity of 100 μM m^−2s^−1. Wild-type (Col-0) Δppd mutant and transgenic PPD-OX seedlings were grown for five days on medium with different concentrations of GA (FIG. 11A) or PAC (FIG. 11B). GA (ACROS organics), and PAC (Sigma-Aldrich) were dissolved in ethanol and acetone respectively, filter sterilised and incorporated into media plates. Ethanol or acetone (0.5%) was used for mock treatments. Seedlings were grown at 24° C. under a 14 h light/10 h dark daily cycle for 5 days before hypocotyl lengths were analysed (n=35). Each treatment was repeated twice; error bars=standard error of the mean.

[2] = system: ryegrass plants; test: Root biomass analysis of grass transformants; assay type: in vivo; conditions: constitutive promoter, root growth beyond the grow bag, approximately 6 weeks
Procedure: (§1) An equal number (typically 4-10) of tillers were taken from WT and ryegrass plants transformed with Arabidopsis PPD under one of three root promoters. Tillers were planted into plastic grow bags containing potting mix and pruned to be of equal height. […] The increase in root biomass was quantified removing the attached above ground portion (leaves and shoots) and drying the roots at 65° C. for 48 hr then weighing the dry weights (Tables 3 and 4)
as §1, with “a constitutive promoter.” for “one of three root promoters.”, “(Table 5).” for “(Tables 3 and 4)”

[3] = system: ryegrass plants; test: Leaf biomass analysis of grass transformants; assay type: in vivo; conditions: constitutive promoter, observed leaf growth, approximately 6 weeks
Procedure: as §1, with “two green tissue” for “three root”, “leaf/shoot” for “root”, “can be” for “was”, “them” for “the roots”, “weights.” for “weights (Tables 3 and 4)”
as §1, with “a constitutive promoter.” for “one of three root promoters.”, “leaf/shoot” for “root”, “them” for “the roots”, “(Table 2).” for “(Tables 3 and 4)”

[4] = system: Arabidopsis Δppd mutant; test: Complementation of the Arabidopsis Δppd mutant leaf phenotype; assay type: in vivo; conditions: CaMV35s promoter, Arabidopsis thaliana ecotype Landsberg erecta, FIG. 13
Description: The functionality of any PEAPOD sequence can be confirmed by complementation of the Arabidopsis Δppd mutant leaf phenotype. Complementation of the Arabidopsis Δppd mutant leaf phenotype was first used to identify the Arabidopsis PPD gene (White 2006). This was seen by a restoration of the wild type flattened leaf phenotype and normal rosette shape as opposed to the domed leaf and the twisting of the rosette to a “propeller” phenotype.
Arabidopsis thaliana (L.) Heynh ecotype Ler can be used as wild-type (WT). The Δppd loss of function deletion mutant (with PPD1 and PPD2 deleted) is as previously described in White 2006, PNAS 103, 13238-13243.
Plants are grown in a temperature-controlled glasshouse at a continuous 21° C. or in a controlled environment cabinet at 23° C. in 16-h light_8-h dark cycles.
Constructs above can be transformed into Arabidopsis by the floral dip infiltration method (Clough and Bent, 1998, Plant J 16, 735-43). The Δppd line is transformed to express the PPD polypeptides by standard techniques. Transgenic plants are confirmed by standard PCR analysis techniques with a combination of transgene-specific and T-DNA primers.
Complementation of the Δppd line to produce a wild-type leaf and rosette phenotype in T1 seedlings (the off-spring of the infiltrated plant) confirms PEAPOD functionality of the introduced gene, which can be shown in photographs.

**Q.** For `C=C1C[C@]23C[C@@]1(O)CC[C@H]2[C@@]12C=C[C@H](O)[C@@](C)(C(=O)O1)[C@H]2[C@@H]3C(=O)O` [GA, gibberellic acid], which hypocotyl elongation ([1]; PPD-OX seedlings, 1 μM GA, 5 days) is on record?
**A.** Its hypocotyl elongation is “increased hypocotyl elongation”.

**Q.** What about the hypocotyl elongation ([1]; PPD-OX seedlings, up to 10 μM GA, 5 days) of the same molecule?
**A.** Its hypocotyl elongation is “hypersensitive elongation”.

**Q.** And the hypocotyl elongation ([1]; WT seedlings, 5-50 μM GA, 5 days)?
**A.** Its hypocotyl elongation is “elongation of the WT hypocotyl occurred in a dose dependent manner”.

**Q.** And the hypocotyl elongation ([1]; wild type (WT) seedlings, 1 μM GA, 5 days)?
**A.** Its hypocotyl elongation is “did not promote elongation”.

**Q.** What about the hypocotyl elongation ([1]; Δppd seedlings, 1 μM GA, 5 days) of the same molecule?
**A.** The hypocotyl elongation was “increased hypocotyl elongation”.

**Q.** What about the hypocotyl elongation ([1]; Δppd seedlings, up to 5 μM GA, 5 days) of the same molecule?
**A.** The hypocotyl elongation was “hypersensitive elongation”.

**Q.** Which hypocotyl length ([1]; PPD-OX seedlings, PAC beyond 0.1 μM) does the source give for `CC(C)(C)[C@@H](O)[C@@H](Cc1ccc(Cl)cc1)n1cncn1` (racemic) [PAC, paclobutrazol] here?
**A.** Its hypocotyl length is “decrease in hypocotyl length”.

**Q.** And the hypocotyl elongation ([1]; PPD-OX seedlings, PAC up to 0.1 μM)?
**A.** Its hypocotyl elongation is “relatively insensitive”.

**Q.** What about the hypocotyl elongation ([1]; wild type seedlings, 0 to 10 μM PAC, 5 days) of the same molecule?
**A.** Its hypocotyl elongation is “dose dependent decrease of hypocotyl elongation”.

**Q.** What about the hypocotyl elongation ([1]; Δppd seedlings, 0 to 10 μM PAC, compared with wild type) of the same molecule?
**A.** The hypocotyl elongation was “larger reduction in hypocotyl elongation”.

B1: Picea sitchensis PPD: PEAPOD protein of Picea sitchensis, SEQ ID NO: 5 (protein, listed as Picea sitchensis)
chain: MRGGERAPGSRPSLDKPLEELTEEDIFQLTREDCRRYLKEKGMRRPSWNKSQAIQQVLSLKSLFESKPNQQSKKPSKHKPATLQFETARDSTFAQSSVSQEQSLGFSWSKEVLDKGTAERQRLCSDSQEAHEIPRLGSKPPQSNTEGKRCAHDGHGRKSAQPLVRLPANFKNDCSNRQSSHTSESQPDTLLRSDSFQQPTAQLTIFYAGMVNVYDDVPLDKA
**Q.** Which results are given for B1?
**A.** root biomass/growth/length/branching compared to WT plants [2]: increase in root biomass/growth/length/branching; leaf biomass/growth/length/branching compared to WT plants [3]: increase in leaf biomass/growth/length/branching; PEAPOD functionality by complementation of the Δppd deletion mutant [4]: functionally equivalent

B2: Trifolium repens PPD: PEAPOD protein of Trifolium repens, SEQ ID NO: 11 (protein, listed as Trifolium repens)
chain: MNGGSTVSFRSILDKPLNQLTEDDISQLTREDCRRFLKDKGMRRPSWNKSQAIQQVISLKALLEPTDDDLPAPVGVSSAIHHHHHHHPQPPQRNLNEAPVKGSDLDDTGFHTAEDLNKSTSTAVEIPTETNDANVVKSSGGCVASGSFGQMTIFYCGKVNVYDGVSPDKARSIMQLAACPSSFPQDNLLNKNAAVWASPCNIPIDKDVLFPNDTAILQVAQTDKMVEYPLQYREKGSIARDADVEGQASRNASLQRYREKRKDRGRSKGNKLTGITSSNFEMYLNLPVKLHASNGNSSRSSTDSPPQPRLPLVSGGSAENQPKVTLPIDLNDKDVQEC
**Q.** What does the source list for B2?
**A.** root biomass/growth/length/branching compared to WT plants [2]: increase in root biomass/growth/length/branching; leaf biomass/growth/length/branching compared to WT plants [3]: increase in leaf biomass/growth/length/branching; PEAPOD functionality by complementation of the Δppd deletion mutant [4]: functionally equivalent

B3: Amborella trichopoda PPD: PEAPOD protein of Amborella trichopoda, SEQ ID NO: 12 (protein, listed as Amborella trichopoda)
chain: MTAGDGSIRSILDKPLEELTEEDISQLTREDCRRYLKEKGMRRPSWNKYQAIQQVLSLKGLLEGKPCDDNSDVFSHRSPITVIPNVGSMREKEKAVNIADPEISGSHQPNFRREIHETTRERALPASDWPPSQEPVSQMTIFYAGAVNVYNDIPEDKVQAIIYLAGKSDSLQQTNVIRTGPDQCIASAASPSLNDLHSRRIHPTSNITTSQSLRVATSLPVGPHSEVPKTRKTSVQRFLEKRKDRGRLKGTLASGGSSKRGSSCLELYATSRLKSEGVATTTTQSNMNNVVVSPSNPRMPLNPGSCSWVEN
**Q.** With B3 as the molecule, how does the “root biomass/growth/length/branching compared to WT plants” value [2] read?
**A.** The value was “increase in root biomass/growth/length/branching”.

**Q.** And the “leaf biomass/growth/length/branching compared to WT plants” value [3]?
**A.** Its value is “increase in leaf biomass/growth/length/branching”.

**Q.** What about the “PEAPOD functionality by complementation of the Δppd deletion mutant” value [4] of the same molecule?
**A.** The value was “functionally equivalent”.
